Reference: PubChem BioAssay (NCI)
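A five-concentration, 48-hour dose response in 96-well plates underlies each endpoint, interpolated linearly between surrounding concentrations. Definition used: TGI = concentration required for complete inhibition of growth.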

Tests used:
Experiment in all cases: NCI-60 cell line screen, 48 h
SF-268 CNS = system: SF-268 CNS
ACHN renal = system: ACHN renal
MDA-MB-435 = system: MDA-MB-435
SW-620 colon = system: SW-620 colon
MDA-MB-231 breast = system: MDA-MB-231 breast
OVCAR-8 ovarian = system: OVCAR-8 ovarian
BT-549 breast = system: BT-549 breast
786-0 renal = system: 786-0 renal
NCI-H522 lung = system: NCI-H522 lung
CCRF-CEM leukemia = system: CCRF-CEM leukemia
MOLT-4 leukemia = system: MOLT-4 leukemia
NCI-H226 lung = system: NCI-H226 lung
A549 NSCLC = system: A549 NSCLC
NCI-H460 lung = system: NCI-H460 lung
SK-OV-3 ovarian = system: SK-OV-3 ovarian
RXF 393 renal = system: RXF 393 renal
NCI-H23 lung = system: NCI-H23 lung
PC-3 prostate = system: PC-3 prostate
SK-MEL-28 melanoma = system: SK-MEL-28 melanoma
TK-10 renal = system: TK-10 renal

| Structure (SMILES) | TGI (SF-268 CNS) | TGI (ACHN renal) | TGI (MDA-MB-435) | TGI (SW-620 colon) | TGI (MDA-MB-231 breast) | TGI (OVCAR-8 ovarian) | TGI (BT-549 breast) | TGI (786-0 renal) | TGI (NCI-H522 lung) | TGI (CCRF-CEM leukemia) | TGI (MOLT-4 leukemia) | TGI (NCI-H226 lung) | TGI (A549 NSCLC) | TGI (NCI-H460 lung) | TGI (SK-OV-3 ovarian) | TGI (RXF 393 renal) | TGI (NCI-H23 lung) | TGI (PC-3 prostate) | TGI (SK-MEL-28 melanoma) | TGI (TK-10 renal) |
| --- | --- | --- | --- | --- | --- | --- | --- | --- | --- | --- | --- | --- | --- | --- | --- | --- | --- | --- | --- | --- |
| CC(C)/C(=N\[N+](C)(C)C)c1ccccc1 | > 100 µM | > 100 µM | > 100 µM | > 100 µM | > 100 µM | > 100 µM | > 100 µM | > 100 µM | > 100 µM | > 100 µM | > 100 µM | > 100 µM | > 100 µM | > 100 µM | > 100 µM | > 100 µM | > 100 µM | > 100 µM | > 100 µM | > 100 µM |
| CC1CN=C(c2cccc(-c3nc(-c4cccc(C5=NCC(C)N5)c4)nc(N(C)C)n3)c2)N1 (stereo not given) | 10.7 µM | 10.1 µM | 2.61 µM | 3.72 µM | 3.48 µM | 11.6 µM | 13.9 µM | 5.67 µM | 2.51 µM | 3.45 µM | 2.7 µM | 6.47 µM | 9.27 µM | 4.38 µM | 4.61 µM | 11.8 µM | 7.77 µM | 3.31 µM | 13.2 µM | 9.76 µM |
| CSc1c(CC(=O)Nc2ccc(Cl)cc2)n(Cc2ccccc2)c2ccccc12 | > 100 µM | > 100 µM | > 100 µM | > 100 µM | 39.3 µM | 41 µM | 46.9 µM | 30.3 µM | > 100 µM | > 100 µM | > 100 µM | 71.8 µM | > 100 µM | > 100 µM | > 100 µM | 30.1 µM | > 100 µM | 27.7 µM | > 100 µM | 57.4 µM |
| CCOC(=O)c1cc(C2CCN(c3ccccc3)C2=O)c(C(=O)/C=C(/C)N)[nH]1 (stereo not given) | > 100 µM | > 100 µM | > 100 µM | > 100 µM | > 100 µM | > 100 µM | > 100 µM | 21.8 µM | 53.1 µM | > 100 µM | > 100 µM | 80.4 µM | > 100 µM | > 100 µM | 50.7 µM | 78.6 µM | > 100 µM | > 100 µM | > 100 µM | > 100 µM |
| Cc1cccc2c(N)c3cccc(C(=O)NCC[N+]4(Cc5ccc([N+](=O)[O-])cc5)CCOCC4)c3nc12 | > 100 µM | > 100 µM | > 100 µM | > 100 µM | > 86.2 µM | > 100 µM | > 100 µM | > 100 µM | > 84.9 µM | > 100 µM | > 69.2 µM | > 100 µM | > 100 µM | > 62.5 µM | > 100 µM | > 100 µM | > 100 µM | > 100 µM | > 100 µM | > 100 µM |
| CC[P+]1(c2ccccc2)[C@@H](C)CC[C@@H]1C | > 100 µM | > 100 µM | > 100 µM | > 100 µM | > 100 µM | > 100 µM | > 100 µM | > 100 µM | > 100 µM | > 100 µM | > 100 µM | > 100 µM | > 100 µM | > 100 µM | > 100 µM | > 100 µM | > 100 µM | > 100 µM | > 100 µM | > 100 µM |
| O=[N+]([O-])/C(C(Cl)=C(Cl)Cl)=C(\N1CCCCC1)n1nnc2ccccc21 | 45 µM | 42.3 µM | > 100 µM | 39.1 µM | 34.5 µM | 42.6 µM | 49.4 µM | 33.5 µM | 40 µM | 14.5 µM | 18.3 µM | 42.6 µM | 51.1 µM | 47.6 µM | 68.2 µM | 43.6 µM | 38.8 µM | 32.8 µM | 48.3 µM | 35.5 µM |
